# Biological target: T1, bacteriorhodopsin (Halobacterium salinarum, UniProt P02945)
# T1 construct: gene bop; synthetic gene (GeneArt), start codon from vector, C-terminal triple StrepII tag, transiently expressed retinal-free in HEK293-EBNA1, purified in DDM; cysteine-free parent protein
# T1 sequence (P02945 14-262): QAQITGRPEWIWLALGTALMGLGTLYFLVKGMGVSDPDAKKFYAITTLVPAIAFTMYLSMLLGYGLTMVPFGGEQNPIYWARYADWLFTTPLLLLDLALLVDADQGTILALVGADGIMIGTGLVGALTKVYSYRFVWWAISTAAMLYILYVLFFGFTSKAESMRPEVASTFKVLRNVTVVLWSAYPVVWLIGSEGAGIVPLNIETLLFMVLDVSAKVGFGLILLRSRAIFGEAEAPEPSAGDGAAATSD
# Experiment: native mass spectrometry of purified protein
# Type: binding
# Details: retinal added during purification; DDM micelles; 150 mM ammonium acetate pH 7.5; isomer not stated
compound,measurement,value
CC1=C(/C=C/C(C)=C/C=C/C(C)=C/C=O)C(C)(C)CCC1 [retinal],native mass spectrometry of purified protein,"Upon addition of retinal during purification, bacteriorhodopsin mass spectra indicated peaks corresponding to the mass"
